In test [1] the test system is rheumatoid arthritis in rat models. The settings on record: subcutaneous administration, dose of 0.3 mg/kg; cited from earlier work.
In test [2] the test system is TGF-β1-Smad signaling pathway. Briefly: TGF-β/Smad-dependent signaling in diabetic wounds. It is filed as in vivo, rat. The settings on record: wounds from treated diabetic rats, day 7; for TGF-βRII expression: FIG. 3D; for phospho-Smad2: FIG. 3E; for Smad7 levels: FIG. 3F. The procedure:
Samples of the total cellular and nuclear extracts were subjected to protein determinations using the Bicinchoninic Acid Protein Assay Kit (Pierce). For western blotting, an equal volume of 2×SDS sample buffer was added, and the samples were denatured by boiling for 5 minutes. Proteins were applied to SDS-polyacrylamide gel electrophoresis (SDS-PAGE) and transferred to an Immobilon polyvinylidene difluoride membrane (BioRad). The membranes were blocked with tris buffered saline containing 0.05% Tween 20 and 5% skim milk, and then treated with a number of primary antibodies, including Smad2/p-Smad2 (Cell Signaling), Smad7 (Imgenex), and β3-integrin (Santa Cruz). Protein bands were visualized by chemiluminescence (Pierce), and band intensity was determined using Bio-Rad densitometer. Unless otherwise specified, β-actin was used to standardize the quantity of sample protein for all Western blotting analyses.

The nature of test [3]: Global physiological characteristics of diabetic rats (weights, plasma and wound fluid hormones, oxidative stress). It is filed as in vivo, rat. Conditions: for Plasma F2 Isoprostanes: index of oxidative stress. The procedure:
All animal procedures were performed in accordance with the NIH Guidance for the Care and Use of Laboratory Animals. The current study used the mildly hyperglycemic, non-obese Goto-Kakizaki (GK) spontaneously diabetic rats, produced by selective inbreeding of glucose-intolerant Wistar rats as a genetic model for type 2 diabetes. Weight-matched female Wistar rats (Kuwait University breeding colony) served as controls. All animals were maintained under standard conditions with 12 hours on/off light cycle, commercial diet, and water ad libitum. Rats destined for various experimental manipulations, including wounding, insulin sensitivity, and drug treatment, were initially matched with regard to body weight (e.g., 230 to 250 g), plasma levels of glucose, free fatty acids and insulin. These indices are commonly used to reflect the severity of the diabetic state.
Cycling control rats in proestrus were used as a reference group. Similarly, the diabetic rats were also treated with PEG-sTNF-RI, a soluble long-lasting form of TNF-RI that neutralizes TNF-α action. […] All of the treatment regimens used with the diabetic rats were given for at least three weeks before wound initiation, and this form of treatment continued during the course of wound healing.
Animals were sacrificed at 3 and 7 days post-wounding. An area that included the complete epithelial margins was excised, and the wounds were bisected and processed so that the mid-point of the wound was sectioned and compared between groups. The resulting specimens were either fixed in 4% paraformaldehyde in phosphate-sucrose buffer and analyzed histologically, or flash frozen in liquid nitrogen and stored at −80° C. prior to biochemical analysis, or embedded in Optimum Cutting Temperature (OCT) compound and immediately frozen in liquid nitrogen for immunofluorescence analysis. It is worthy of note that the number of wounds used for most of the aforementioned studies were in the range of 48 to 60 wounds per treatment. Some parameters related to sex hormones and oxidative stress were measured in serum or wound fluids, which were collected on day 7 post-wounding from subcutaneously inserted stainless steel mesh chambers.

In test [4] the test system is GK diabetic rats. Briefly: Full-thickness excisional wound healing in GK diabetic rats (closure, re-epithelialization, ECM deposition). The settings on record: diabetic wounds.
Test [5] deals with GK diabetic rats. Briefly: Insulin sensitivity clamp (Rapid Insulin Sensitivity Test) in female diabetic rats.
The test system of test [6] is NF-κB. Briefly: NF-κB p65-DNA binding activity in wounds. Format: in vivo, rat. Conditions: wounds from treated diabetic rats; FIG. 5G.
Protocol: To assess protein expression and NF-κB activation, frozen liquid nitrogen powdered wounded tissues or serum starved RDFs/HDFs were homogenized on ice in a RIPA buffer (50 mM Tris pH 7.4, 150 mM NaCl, 10 mM EDTA, 2 mM sodium vanadate, 150 mM sodium fluoride, 0.5% sodium deoxycholate, 1% Triton X-100, and a cocktail of protease inhibitors) for total cellular proteins, or with a hypotonic buffer A (10 mM HEPES pH 7.9, 10 mM KCl, 2 mM MgCl2, 0.1 mM EDTA, 1.0 mM DTT, 0.5 mM PMSF, 20 mM NaF, 1 mM sodium orthovanadate and a cocktail of protease inhibitors) for the nuclear protein extraction. […] Similarly, the hypotonic buffer-dependent homogenates (500 μl) were incubated on ice for 20 minutes, after which 50 μl of 10% NP-40 was added. The mixture was vortexed and centrifuged (5000×g, 1 min, 4° C.). […]
A quantitative analysis of p65-DNA binding activity was performed on the nuclear protein extracts using the ELISA-based TransAM NFκB Transcription Factor Assay Kit (Active Motif) according to the manufacturer's instruction. […] The activated transcription factor, specifically bound to the immobilized oligonucleotide, was detected using an antibody directed against NF-κB and a secondary antibody conjugated to horseradish peroxidase. The developing solution was then added, and the OD (450-665 mm) was measured using a microplate reader (Thermo Scientific). Results were expressed as % of control.
Test [7] relates to wound macrophage markers. Conditions: diabetic wounds.
Setting [8] is: GK diabetic rats treated, plasma, mean±SEM.
The mark [9] stands for this setting: GK diabetic rats treated, wound fluid day 7 post-wounding, mean±SEM.
The mark [10] stands for this setting: female GK diabetic rats treated, mean±SEM.

With “TNFR1: soluble pegylated long-lasting form of TNF-RI (Amgen) that neutralizes TNF-α action”, in test [1], the “inflammatory reaction of rheumatoid arthritis” value is “appears to limit the inflammatory reaction”. Moreover, in test [2], the TGF-βRII expression result is listed as “augmented”, the phospho-Smad2 entry is “augmented” and the Smad7 levels result is listed as “decreased”. For the same molecule, the “Plasma F2 Isoprostanes” value in test [3] (setting [8]) was determined as 69 ± 8.4 pg/mL. The “Wound fluid F2 Isoprostanes” value in test [3] (setting [9]) was determined as 59 ± 5.2 pg/mL. The “deposition of ECM” value in test [4] (FIG. 2A-D) is listed as “significant improvement”. The “healing process, at the macroscopic and microscopic levels” value in test [4] (FIGS. 1A and B) was “significant improvement”. In test [5] (diabetic animals, Table 2), the “effect on carbohydrate tolerance” value is recorded as “favorable effect”, the hyperinsulinemic state entry was “partially ameliorated” and the “target tissue sensitivity to insulin (increase in glucose infusion rate)” value is “significantly improved”. The “GIR: Glucose infusion rate” value in test [5] (female GK diabetic rats treated, clamp, mean±SEM) worked out at 18.53 ± 1.49 mg/min/kg body wt. In test [5] (setting [10]), the “FBG: Fasting blood glucose” value is 125 ± 17 mg/dL, the “FPI: Fasting plasma insulin” value came out at 0.68 ± 0.05 ng/mL and the “PCPI: Post clamp plasma insulin” value is 4.61 ± 0.4 ng/mL. Further, the NF-κB activity result in test [6] is “significant decrease”. The pro-resolving/M2 polarizing effect entry in test [7] is on record as “recapitulated”.

On to `C[C@]12CC[C@@H]3c4ccc(O)cc4CC[C@H]3[C@@H]1CC[C@@H]2O` [E2, β-estradiol], for which, in test [2], the TGF-βRII expression entry is “augmented”, the phospho-Smad2 result was “augmented” and the Smad7 levels entry is given as “decreased”. Moreover, the “Weight (g) Uterus” value in test [3] (GK diabetic rats treated, mean±SEM) was 0.41 ± 0.04 g. Besides, in test [3] (setting [8]), the “Plasma F2 Isoprostanes” value was 47 ± 6.6 pg/mL and the “Plasma Testosterone” value is 849 ± 85 pg/mL. For the same molecule, in test [3] (setting [9]), the “Wound fluid F2 Isoprostanes” value amounted to 43 ± 4.4 pg/mL and the “Wound fluid Testosterone” value was found to be 456 ± 47 pg/mL. Also, the “diabetes-related abnormalities (testosterone, F2 isoprostanes, uterine weights, plasma and wound E2 levels)” value in test [3] (GK diabetic rats, Table 1) was “Most of the aforementioned abnormalities were normalized”. Further, the “up-regulation in M1 macrophage-derived markers, together with the resolution of inflammation within the diabetic wound microenvironment” value in test [7] (FIG. 5C-E) is listed as “normalized”. Moreover, the “diabetes-related decrease in the expression of wound M2 macrophage phenotype” value in test [7] (FIGS. 2F, 2G, 3A, 3B, 5F) is “partial reversal”.

Values taken from patent publication US9387183B2, “Method of treating diabetes-related impaired wound healing” (KUWAIT UNIVERSITY, priority 2011, dated 2016).
